Drawing on PubChem BioAssay (NCI), this text covers GI50 and TGI for 17 molecules.

Holding throughout (assay): inhibition of tumour cell growth, NCI panel, 48 h
In assay [1] the test system is HL-60(TB) leukemia.
Assay [2] has as its system HOP-62 NSCLC.
The test system of assay [3] is KM12 colon.
Assay [4] deals with OVCAR-3 ovarian.
Assay [5] concerns SK-MEL-2 melanoma.
The test system of assay [6] is SK-MEL-28 melanoma.
Assay [7] has as its system SN12C renal.
The test system of assay [8] is T-47D breast.
In assay [9] the test system is MCF7 breast.
Assay [10] has as its system SF-539 CNS.

The structures appear in SMILES notation.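 Each compound was tested at five concentrations against cells in 96-well plates for 48 hours. At the GI50, growth is halved. TGI: concentration producing complete growth inhibition.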 *1 amine or outer side, *2 acyl side, *3 side chain or, on linkers, in order; H or OH if unused. Where a SMILES comes first, the peptide text is derived from it. CO = O=C([*:1])[*:2]

As for `CCCN1C(=O)/C(=C/c2ccc(O)cc2)SC1=Nc1ccccc1`, the GI50 was above 100000 nM in [1]; 21.2 µM in assay [2]; 19.9 µM in assay [3]; 17.8 µM in assay [4]; 51 µM in assay [5]; 27700 nM in assay [6]. The GI50 in assay [7] was 18.4 µM; in assay [8], 22500 nM. For the same molecule, the TGI in assay [1] is above 100 µM; in assay [2], 37.9 µM; in [3] it was 55.3 µM; in assay [4], 33.8 µM; in assay [5], above 100 µM; in [6], 50.9 µM. Also, the TGI was 35.5 µM in [7] and 50.8 µM in assay [8].

As for `Cc1cc(S(=O)(=O)/N=C(\N)n2nc(C)c(C)c2C)c(SCc2ccccc2)cc1Cl`, the GI50 in assay [2] was above 100 µM; in [3], 9.47 µM; in [9], 5.12 µM; in assay [4] it was 46.4 µM; in assay [10], above 100000 nM; in assay [5], above 100 µM. The GI50 is above 100000 nM in assay [6], above 100 µM in assay [7] and 3140 nM in assay [8]. Moreover, the TGI in [2], in [3], in [9], in assay [4], in assay [10] and in assay [5] was above 100 µM in each case. Besides, the TGI in assay [6], in [7] and in [8] was above 100 µM throughout.

Turning to `CC(C)C(NC(=O)C(CCCN=C(N)N)NC(=O)NC(Cc1ccccc1)C(=O)O)C(=O)NC(C=O)CCCN=C(N)N` (stereo not drawn) ({Phe-CO}-Arg-Val-Arg-aldehyde; configuration not given here), the GI50 is above 5 µM in assay [2]; above 5 µM in assay [3]; above 5 µM in assay [9]; above 5 µM in assay [4]; above 5000 nM in assay [10]; above 5 µM in assay [5]. Besides, the GI50 in assay [6] is above 5000 nM; in assay [7], above 5 µM; in assay [8], above 5000 nM. Besides, the TGI in assay [2], in assay [3], in assay [9], in assay [4], in [10] and in assay [5] was above 5 µM throughout. The TGI in assay [6], in assay [7] and in assay [8] was above 5 µM each time.

Consider `CCCCCCCCO/N=C\c1c2c(O)c3c(O)c(C)c4c(c3c1O)C(=O)C(C)(O/C=C\C(OC)C(C)C(OC(C)=O)C(C)C(O)C(C)C(O)C(C)/C=C\C=C(\C)C(=O)N2)O4` (centres undefined), for which the GI50 in assay [2] was 1.63 µM; in assay [3], 1.67 µM; in assay [9] it was 1.36 µM; in assay [4] it was 0.96 µM; in assay [10], 2740 nM; in [6], 1370 nM. Also, the GI50 is 2.39 µM in assay [7] and 2060 nM in assay [8]. The TGI in assay [2] amounted to 5.78 µM; in assay [3] it was 6.36 µM; in assay [9] it was 5.12 µM; in assay [4], 2.18 µM; in assay [10], 9.75 µM; in assay [6], 4.17 µM. In addition, the TGI in [7] turned out to be 9.22 µM; in [8] it was 7.45 µM.

With `CCC[C@H](Nc1nc(-c2ccc(NC(=O)NCC)c(OC)c2)ncc1C)c1cccnc1`, the GI50 in assay [1] was 24.6 nM; in assay [2] it was 0.0638 µM; in assay [3], 0.0337 µM; in assay [9], 0.0365 µM; in assay [4], 0.0221 µM; in [10], 33.4 nM. The GI50 in assay [5] was 0.0477 µM; in [6], 1140 nM; in [7], 0.0486 µM. The TGI in [1] was 0.0582 µM; in assay [2] it was 39.7 µM; in [3] it was 0.225 µM; in assay [9], 29.6 µM; in assay [4], 0.0492 µM; in [10], 3.87 µM. Also, the TGI is 20.7 µM in assay [5], above 61.6 µM in [6] and 20.5 µM in assay [7].

With `CC(=O)NC(Cc1c[nH]c2ccccc12)C(=O)O` (centres undefined), the TGI in [1], in [2], in [3], in assay [9], in assay [4] and in [5] was above 100 µM each time. Besides, the TGI in [6], in assay [7] and in [8] was above 100 µM in each case.

Take `N#Cc1c(N)nc(N2CCOCC2)c(C#N)c1-c1cccc(O)c1`: the GI50 is 78.3 µM in assay [2]; 47 µM in [9]; 61.9 µM in assay [4]; above 100000 nM in assay [10]; above 100 µM in assay [5]; above 100000 nM in assay [6]. Further, the GI50 in [7] was 69 µM; in [8], 42700 nM. In addition, the TGI in assay [2], in assay [9], in assay [4], in assay [10], in [5] and in assay [6] was above 100 µM throughout. Besides, the TGI in [7] and in assay [8] was above 100 µM in each case.

For `Fc1ccc(Nc2ccc3cc(OCCCN4CCOCC4)ccc3n2)cc1F`, the GI50 in assay [2] is 4.54 µM; in [3] it was 2.06 µM; in assay [9] it was 3.11 µM; in assay [4] it was 7.03 µM; in assay [10], 3220 nM; in assay [5], 4.84 µM. For the same molecule, the GI50 was 1870 nM in [6], 9.77 µM in assay [7] and 6680 nM in assay [8]. In addition, the TGI in assay [2] was 45.9 µM; in assay [3], 5.48 µM; in assay [9], 27 µM; in assay [4], above 100 µM; in assay [10], 18.7 µM; in assay [5], 33.5 µM. In addition, the TGI in assay [6] was 3.93 µM; in [7], above 100 µM; in assay [8] it was above 100 µM.

Regarding `O=C(Nc1nc(-c2ccc(Cl)cc2)cs1)c1ccc(O)c(O)c1`, the GI50 in assay [1] is 2850 nM; in assay [2], 4.68 µM; in [3] it was 5.36 µM; in assay [9], 5.49 µM; in assay [4], 5.03 µM; in [10], 3920 nM. Also, the figures for the GI50 in assay [6], in [7] and in assay [8] were 3630 nM, 3.67 µM and 2870 nM, respectively. In addition, the TGI worked out at 9.53 µM in [1]; 17.6 µM in assay [2]; 21.2 µM in assay [3]; 43.4 µM in assay [9]; 18.2 µM in [4]; 14.8 µM in [10]. The TGI was determined as 20 µM in [6], 15.7 µM in assay [7] and 18.5 µM in assay [8].

`CCC[CH2][Sn]([CH2]CCC)([O]C(=O)c1cccc(F)c1F)[O][Sn]([CH2]CCC)([CH2]CCC)[O]C(=O)c1cccc(F)c1F`: the GI50 in [2] was 1.6 µM; in assay [3], 0.857 µM; in assay [9] it was 0.0463 µM; in assay [4] it was 0.493 µM; in assay [10], 208 nM; in [5], 0.166 µM. For the same molecule, the values for the GI50 in [6], in [7] and in assay [8] were 154 nM, 0.293 µM and 18.9 nM, respectively. The TGI is 3 µM in assay [2]; 2.22 µM in assay [3]; 0.2 µM in [9]; 1.64 µM in assay [4]; 0.722 µM in assay [10]; 0.447 µM in assay [5]. The TGI amounted to 0.369 µM in assay [6], 1.15 µM in assay [7] and 0.186 µM in assay [8].

Take `CCOC(=O)c1ccc(C(O)CC(=O)OC(C)(C)C)[nH]1` (centres undefined): the GI50 is 45.1 µM in [2]; 24 µM in assay [3]; 10.4 µM in assay [9]; 28.5 µM in assay [4]; 21.3 µM in assay [5]; 35700 nM in [6]. The results for the GI50 in [7] and in assay [8] were 17.4 µM and 38400 nM, respectively. The TGI was above 100 µM in assay [2]; 61.4 µM in assay [3]; 30 µM in assay [9]; 68.2 µM in [4]; 41.3 µM in [5]; above 100 µM in assay [6]. Moreover, the TGI was 62.4 µM in assay [7] and above 100 µM in [8].

With `N#C/C(=C\c1ccc(Br)cc1)n1nnc2cc(F)c(F)cc21`, the GI50 in [1] is 2070 nM; in assay [2], 1.93 µM; in assay [3], 1.78 µM; in [4], 1.89 µM; in assay [10], 1860 nM; in assay [5] it was 1.76 µM. Besides, the GI50 in assay [6] is 1840 nM; in assay [8], 1270 nM. Besides, the TGI in assay [1] worked out at 4.96 µM; in [2] it was 4.27 µM; in assay [3], 3.74 µM; in assay [4], 3.76 µM; in assay [10], 3.39 µM; in [5] it was 3.4 µM. In addition, the TGI in assay [6] came to 3.63 µM; in assay [8] it was 4.08 µM.

On to `C=C1C(=O)O[C@H]2[C@H]1CC/C(COC(=O)N[C@@H](Cc1c[nH]c3ccccc13)C(=O)OC)=C\CC[C@@]1(C)O[C@@H]21`, for which the GI50 is 363 nM in assay [1]; 8.77 µM in assay [2]; 4.11 µM in assay [3]; 1.24 µM in assay [4]; 1450 nM in assay [10]; 2.21 µM in [5]. For the same molecule, the GI50 was 1660 nM in assay [6], 1.37 µM in [7] and 1840 nM in [8]. The TGI in assay [1] was 1.89 µM; in assay [2] it was 22.1 µM; in assay [3], 15.6 µM; in assay [4] it was 2.69 µM; in [10] it was 2.92 µM; in assay [5] it was 6.06 µM. Further, the TGI in assay [6] came out at 3.53 µM; in assay [7], 3.1 µM; in [8], 4.39 µM.

Turning to `O=C1C(Br)=C(c2ccccc2)C(c2ccccc2)=C1c1ccccc1`, the TGI in assay [1] turned out to be 2.31 µM; in assay [2] it was 23 µM; in [3], 18.5 µM; in assay [9], 7.68 µM; in [4] it was 6.37 µM; in assay [10], 8.07 µM. Besides, the TGI in assay [5] turned out to be 14.4 µM; in [6], 6.75 µM; in [7], 3.85 µM.

As for `N#Cc1c(SCc2ccccc2)nc2[nH]c(=S)[nH]c(=S)c2c1-c1ccco1`, the GI50 in [1] is 40600 nM; in [2], 58.4 µM; in assay [3] it was 60.3 µM; in assay [9] it was 28.4 µM; in assay [4] it was 25.8 µM; in assay [10] it was 31700 nM. Besides, the GI50 in assay [5] was above 100 µM; in assay [6] it was above 100000 nM; in assay [7], 15.7 µM. Further, the TGI in assay [1] was above 100 µM; in assay [2], above 100 µM; in [3], above 100 µM; in assay [9] it was above 100 µM; in [4] it was 73.5 µM; in assay [10], above 100 µM. The TGI in assay [5] was above 100 µM; in assay [6], above 100 µM; in assay [7], 36.1 µM.

Take `COc1ccc(/C(Cl)=C(\C=O)c2cc(OC)c(OC)c(OC)c2)cc1OC`: the TGI is 58.6 µM in assay [1]; above 100 µM in assay [2]; 73.8 µM in assay [3]; above 100 µM in assay [4]; 87.9 µM in assay [10]; above 90.5 µM in assay [5]. Besides, the TGI in assay [6], in assay [7] and in assay [8] was above 100 µM in each case.

For `CCN(CC)CCCN1C(=O)c2c(c(C)c3c(oc4cc(O)ccc43)c2C)C1=O`, the GI50 is 1690 nM in assay [1]; 1.73 µM in assay [2]; 1.8 µM in assay [3]; 1.79 µM in assay [4]; 1770 nM in assay [10]; 15.7 µM in [5]. Also, the GI50 was 1830 nM in assay [6], 1.81 µM in assay [7] and 1850 nM in assay [8]. In addition, the TGI in assay [1] came to 3.67 µM; in assay [2], 3.29 µM; in [3], 3.37 µM; in assay [4], 3.27 µM; in assay [10], 3.18 µM; in assay [5], 32.6 µM. Besides, the TGI was found to be 3.4 µM in [6], 3.41 µM in [7] and 3.8 µM in assay [8].
